In ChEMBL document CHEMBL1147013, “Three anti-tumor saponins from Albizia julibrissin” (2006):

What was measured:
Format in all cases: functional
[1] = test system: BGC-823; experiment: Antitumor activity against human BGC823 cell line by SRB assay
[2] = test system: HL-60; experiment: Antitumor activity against human HL60 cell line by SRB assay
[3] = test system: Bel-7402; experiment: Antitumor activity against human Bel7402 cell line by SRB assay
[4] = test system: Bel-7402; experiment: Antitumor activity against human Bel7402 cell line by MTT assay
[5] = test system: MDA-MB-435; experiment: Antitumor activity against human MDA-MB-435 cell line by SRB assay
[6] = test system: PC-3; experiment: Antitumor activity against human PC-3M-1E8 cell line by MTT assay
[7] = test system: PC-3; experiment: Antitumor activity against human PC-3M-1E8 cell line by SRB assay
[8] = test system: HeLa; experiment: Antitumor activity against human HeLa cell line by SRB assay
[9] = test system: HeLa; experiment: Antitumor activity against human HeLa cell line by MTT assay

| SMILES | Inhibition [1] [%] | Inhibition [2] [%] | Inhibition [3] [%] | Inhibition [4] [%] | Inhibition [5] [%] | Inhibition [6] [%] | Inhibition [7] [%] | Inhibition [8] [%] | Inhibition [9] [%] |
| --- | --- | --- | --- | --- | --- | --- | --- | --- | --- |
| C=C[C@@](C)(CC/C=C(\CO)C(=O)O[C@H]1C[C@]2(C(=O)O[C@@H]3O[C@H](CO)[C@@H](O)[C@H](O)[C@H]3O[C@@H]3O[C@@H](C)[C@H](O[C@@H]4O[C@@H](CO)[C@H](O)[C@H]4O)[C@@H](O[C@@H]4O[C@H](CO)[C@@H](O)[C@H](O)[C@H]4O)[C@H]3O)[C@H](O)C[C@]3(C)C(=CC[C@@H]4[C@@]5(C)CC[C@H](O[C@@H]6O[C@H](CO[C@@H]7O[C@H](C)[C@H](O)[C@H](O)[C@H]7O[C@@H]7OC[C@@H](O)[C@H](O)[C@H]7O)[C@@H](O)[C@H](O)[C@H]6NC(C)=O)C(C)(C)[C@@H]5CC[C@]43C)[C@@H]2CC1(C)C)O[C@@H]1O[C@H](C)[C@@H](O)[C@H](O)[C@H]1O [JULIBROSIDE J29] | 52.9 | 25.35 | 67.14 | 50.37 | 84.47 | 81.4 | 85.37 | 94.9 | 87.75 |
| C=CC(C)(CC/C=C(/CO)C(=O)O[C@H]1CC2(C(=O)O[C@@H]3O[C@H](CO)[C@@H](O)[C@H](O)[C@@H]3O[C@H]3O[C@H](C)[C@@H](O[C@H]4O[C@H](CO)[C@@H](O)[C@@H]4O)[C@H](O[C@H]4O[C@@H](CO)[C@H](O)[C@@H](O)[C@@H]4O)[C@@H]3O)C(CC1(C)C)C1=CCC3C4(C)CC[C@H](O[C@@H]5O[C@H](CO[C@H]6O[C@@H](C)[C@@H](O)[C@@H](O)[C@@H]6O[C@H]6OC[C@H](O)[C@@H](O)[C@@H]6O)[C@@H](O)[C@H](O)[C@H]5NC(C)=O)C(C)(C)C4CCC3(C)[C@]1(C)C[C@H]2O)O[C@H]1OC[C@H](O)[C@@H](O)[C@@H]1O (stereo not given in full) [JULIBROSIDE J30] | 46.66 | 25.59 | 57.49 | 61.87 | 75.68 | 75.96 | 84.98 | 91.65 | 92.19 |
| C=CC(C)(CC/C=C(/CO)C(=O)O[C@H]1CC2(C(=O)O[C@@H]3O[C@H](CO)[C@@H](O)[C@H](O)[C@@H]3O[C@H]3O[C@H](C)[C@@H](O[C@H]4O[C@H](CO)[C@@H](O)[C@@H]4O)[C@H](O[C@H]4O[C@@H](CO)[C@H](O)[C@@H](O)[C@@H]4O)[C@@H]3O)C(CC1(C)C)C1=CCC3C4(C)CC[C@H](O[C@@H]5O[C@H](CO[C@H]6O[C@@H](C)[C@@H](O)[C@@H](O)[C@@H]6O[C@H]6OC[C@H](O)[C@@H](O)[C@@H]6O)[C@@H](O)[C@H](O)[C@H]5OC5O[C@H](CO)[C@@H](O)[C@H](O)[C@H]5O)C(C)(C)C4CCC3(C)[C@]1(C)C[C@H]2O)O[C@H]1O[C@@H](C)[C@H](O)[C@@H](O)[C@@H]1O (stereo not given in full) [JULIBROSIDE J31] | 15.16 | 39.33 | 46.61 | 44.34 | 80.41 | 94.71 | 80.85 | 83.48 | 64.33 |
| COc1cccc2c1C(=O)c1c(O)c3c(c(O)c1C2=O)C[C@@](O)(C(=O)CO)C[C@@H]3O[C@H]1C[C@H](N)[C@H](O)[C@H](C)O1 [DOXORUBICIN] | – | – | – | 51.26 | – | 91.61 | – | – | 76.96 |
